Data as given in patent publication US20100173025A1, “FAT ABSORPTION INHIBITORY COMPOSITION” (NISSHIN PHARMA INC., priority 2007, published 2010).

Tested on: lipase (produced by Sigma)
Experiment: Determination of lipase inhibitory activity (olive oil substrate emulsion, copper reagent, absorbance at 480 nm)
Type: biochemical
Details: 37° C., 30 minutes
Experimental: Ten micro litter of a solution containing the composition of the present invention obtained in Example 2 or 3 (diluted with a buffer to a final concentration of 0.01 or 0.1 mg/mL) or 10 μL of a solution containing the composition of the present invention obtained in Example 4 (at a final concentration of 1 mg/mL) was added to 80 μL, of a substrate emulsion (3.0 g of obtained by adding olive oil to 100 mL of a buffer described below, followed by sonication). The resultant was allowed to stand at 37° C. for 10 minutes. Ten micro litter of a lipase solution (diluted with a buffer to a concentration of lipase (produced by Sigma) of 1.0 mg/mL) was added thereto. The mixture was reacted with an enzyme reaction at 37° C. for 30 minutes. […] A coloring solution was added to the supernatant for determination of an absorbance at 480 nm. […] Results were calculated by Equation 1 described below with absorbance of the following: the composition of the present invention; a blank replaced the lipase solution with a buffer; and a control replaced a solution containing the composition of the present invention with a buffer. […]
Inhibition rate (%)=[1−[absorbance of the composition of the present invention−blank absorbance]/[control absorbance−blank absorbance]]

purothionin [Positive control] was tested. Which Lipase inhibition rate (final concentration 0.1 mg/mL) did it give?
Its Lipase inhibition rate is 76%.

And the Lipase inhibition rate (final concentration 1 mg/mL)?
Its Lipase inhibition rate is 96%.
